In patent US11974988B2, “Neuroprotective compositions and methods of using the same” (The Board of Supervisors of Louisiana State Univer …, priority 2018, dated 2024):
Converted amounts (≈) assume the structure as drawn. “And” between values parts separate entries of the source, which are not always exact repeats. Identical values can stand only once. “Also recorded” adds a separate entry of the source. Like-named read-outs stand apart in the source and are kept apart here.

Columns and labels:
plasma protein = assay: Plasma protein binding; type: in vitro ADME, rat
Text: Synthesis of SKA-41, SKA-190, SKA-219 and SKA-220 and will validate plasma protein binding with rat plasma using equilibrium dialysis so that we can validate protein binding.

[1] = system: activity-regulated Gln/MeAIB transport (SNAT activity) in hippocampal neurons; assay: Activity-regulated (spontaneous, 4-AP- or K+-stimulated) [14C]-MeAIB transport in primary hippocampal neurons; type: cell-based, rat; parameters: block of transport activity: dose or concentration left out as unconfirmed; settings: for IC50 / inhibition at 10 µM: Rattus norvegicus, Hippocampal neuron; for relative affinity for PMA-induced K+-activity-stimulated Gln/MeAIB transport activity: PMA 10 min before KCl 60 mM; for inhibition at 10 µM: read-out: block / inhibition of transport activity; for inhibition of spontaneous activity-regulated 14C-MeAIB transport, in words: screens, 10 μM, GABA 2 mM; for potency to inhibit activity-regulated MeAIB transport relative to a comparator, in words: spontaneous and 4-AP stimulated transport
NaV1.2 = biological target: T1, NaV1.2 (Mus musculus, UniProt B1AWN6); assay: NaV currents recorded by whole-cell patch clamp from N1E-115 neuroblastoma cells expressing NaV1.2; type: cell-based
T1 construct: N1E-115 cells that constitutively express NaV1.2; endogenous in cells; host or cells: N1E-115 mouse neuroblastoma cells
Text: Cells were held at −80 mV and current elicited by a 0 mV depolarization stepped from a −120 mV conditioning pulse at 0.1 Hz.
Cells transiently (or stably) expressing voltage-gated Na^+ or K^+ channels will be subjected to electrophysiological recording using the whole-cell patch-clamp technique. We will use HEK-293 cell lines stably expressing hNaV1.1, hNaV1.5, hNaV1/7, hNaV1.4, and hKV2.1. […] All cells will be voltage clamped to a holding potential of −90 mV, otherwise specified if held at −120 mV in the case of NaV1.2 use-dependence recording. Na^+ currents will be elicited by 30-ms pulse to 0 mV from −90 mV applied every 10 s. KV2.1 currents will be elicited by 200-ms voltage steps from −90 to 40 mV applied every 10 s.

[2] = system: activity-regulated Gln/MeAIB transport (SNAT activity) in hippocampal neurons; settings: cited from earlier work; for block of 14C-MeAIB transport activity: 2 mM; for Km: read-out: Km of the activity-regulated Gln/MeAIB transport system
SNAT1 or SNAT2 = settings: cited from earlier work
KCa2 and NaV channels = settings: cited from earlier work
[3] = Max. solubility (Table 1); type: physicochemical
[4] = system: hippocampal neurons of KA-treated rats; assay: KA-induced status epilepticus model, hippocampal neurodegeneration (fluoro-jade B, NeuN); type: in vivo, rat; settings: for neuroprotection against Glu-induced excitotoxicity in the KA model of TLE: rat, in vivo
Text: (§1) In Aim 3, we treat male and female rats with the ‘best’ SKA-41 derivatives before and after injection of kainic acid (KA). The KA-induced status epilepticus (SE) model is a well-validated model of temporal lobe epilepsy (TLE), the major form of human epilepsy. The model allows studying the different stages between SE and the development of TLE including SE, the acute and latent stages of epileptogenesis and chronic epilepsy. The excitotoxin KA causes excessive Glu release in the hippocampus and selective destruction of inhibitory SOM interneurons in the hilus region of the dentate gyrus (DG) and loss of pyramidal neurons in the CA3 (esp), and also CA1 regions. We scaled up synthesis of SKA-41, 219, and SKA-378. The identity of the compounds was confirmed by ^1H- and ^13C-NMR and high-resolution mass spectrometry. Compound purity is determined by HPLC and no compounds with less then 98% purity were used. […] Rats were processed for immunohistochemistry 3 days after KA administration. As expected, we find that KA treatment induces significant neural damage (green cells) in the CA3 pyramidal neuron subfield and in neurons in the hilus (FIG. 20 Panel A), which are SOM containing GABAergic interneurons (not shown). Fluoro jade B is a high affinity fluorescent marker used for the localization of neuronal degeneration. […] In studies, we have also administered SKA-378 (30 mg/kg) one hr after the onset of stage IV seizures (SE), followed by another injection at 4 hr post SE and then once each day for 3 days. We find that SKA-378 is also neuroprotective under these conditions.
as §1, with “with” for “with the ‘best’”, “(esp)” for “(esp),”, “were” for “was”, “We” for “As expected, we”, “23” for “20”, “Fluoro-jade” for “Fluoro jade”

[5] = system: N- and P/Q-type Ca2+ channels; settings: read-out: IC50, block of N- and P/Q-type Ca2+ channels; cited from earlier work
[6] = system: small-conductance Ca2+-activated K+ channels; settings: read-out: EC50, activation of small-conductance Ca2+-activated K+ channels; cited from earlier work
protein Kinase C = settings: read-out: IC50, inhibition of protein Kinase C; cited from earlier work
[7] = system: delayed-rectifier K+ channels and two-pore K+ channels; settings: cited from earlier work
NaV channels = settings: read-out: IC50s, inhibition of NaV channels; cited from earlier work
[8] = 4-AP-stimulated (depolarization) [14C]-MeAIB uptake, DIV16, n in brackets, read-out: SNAT Activity IC50, 4-AP
[9] = spontaneous [14C]-MeAIB uptake, DIV 19, n in brackets, read-out: SNAT Activity IC50, Spont

T1 sequence (B1AWN6 whole entry): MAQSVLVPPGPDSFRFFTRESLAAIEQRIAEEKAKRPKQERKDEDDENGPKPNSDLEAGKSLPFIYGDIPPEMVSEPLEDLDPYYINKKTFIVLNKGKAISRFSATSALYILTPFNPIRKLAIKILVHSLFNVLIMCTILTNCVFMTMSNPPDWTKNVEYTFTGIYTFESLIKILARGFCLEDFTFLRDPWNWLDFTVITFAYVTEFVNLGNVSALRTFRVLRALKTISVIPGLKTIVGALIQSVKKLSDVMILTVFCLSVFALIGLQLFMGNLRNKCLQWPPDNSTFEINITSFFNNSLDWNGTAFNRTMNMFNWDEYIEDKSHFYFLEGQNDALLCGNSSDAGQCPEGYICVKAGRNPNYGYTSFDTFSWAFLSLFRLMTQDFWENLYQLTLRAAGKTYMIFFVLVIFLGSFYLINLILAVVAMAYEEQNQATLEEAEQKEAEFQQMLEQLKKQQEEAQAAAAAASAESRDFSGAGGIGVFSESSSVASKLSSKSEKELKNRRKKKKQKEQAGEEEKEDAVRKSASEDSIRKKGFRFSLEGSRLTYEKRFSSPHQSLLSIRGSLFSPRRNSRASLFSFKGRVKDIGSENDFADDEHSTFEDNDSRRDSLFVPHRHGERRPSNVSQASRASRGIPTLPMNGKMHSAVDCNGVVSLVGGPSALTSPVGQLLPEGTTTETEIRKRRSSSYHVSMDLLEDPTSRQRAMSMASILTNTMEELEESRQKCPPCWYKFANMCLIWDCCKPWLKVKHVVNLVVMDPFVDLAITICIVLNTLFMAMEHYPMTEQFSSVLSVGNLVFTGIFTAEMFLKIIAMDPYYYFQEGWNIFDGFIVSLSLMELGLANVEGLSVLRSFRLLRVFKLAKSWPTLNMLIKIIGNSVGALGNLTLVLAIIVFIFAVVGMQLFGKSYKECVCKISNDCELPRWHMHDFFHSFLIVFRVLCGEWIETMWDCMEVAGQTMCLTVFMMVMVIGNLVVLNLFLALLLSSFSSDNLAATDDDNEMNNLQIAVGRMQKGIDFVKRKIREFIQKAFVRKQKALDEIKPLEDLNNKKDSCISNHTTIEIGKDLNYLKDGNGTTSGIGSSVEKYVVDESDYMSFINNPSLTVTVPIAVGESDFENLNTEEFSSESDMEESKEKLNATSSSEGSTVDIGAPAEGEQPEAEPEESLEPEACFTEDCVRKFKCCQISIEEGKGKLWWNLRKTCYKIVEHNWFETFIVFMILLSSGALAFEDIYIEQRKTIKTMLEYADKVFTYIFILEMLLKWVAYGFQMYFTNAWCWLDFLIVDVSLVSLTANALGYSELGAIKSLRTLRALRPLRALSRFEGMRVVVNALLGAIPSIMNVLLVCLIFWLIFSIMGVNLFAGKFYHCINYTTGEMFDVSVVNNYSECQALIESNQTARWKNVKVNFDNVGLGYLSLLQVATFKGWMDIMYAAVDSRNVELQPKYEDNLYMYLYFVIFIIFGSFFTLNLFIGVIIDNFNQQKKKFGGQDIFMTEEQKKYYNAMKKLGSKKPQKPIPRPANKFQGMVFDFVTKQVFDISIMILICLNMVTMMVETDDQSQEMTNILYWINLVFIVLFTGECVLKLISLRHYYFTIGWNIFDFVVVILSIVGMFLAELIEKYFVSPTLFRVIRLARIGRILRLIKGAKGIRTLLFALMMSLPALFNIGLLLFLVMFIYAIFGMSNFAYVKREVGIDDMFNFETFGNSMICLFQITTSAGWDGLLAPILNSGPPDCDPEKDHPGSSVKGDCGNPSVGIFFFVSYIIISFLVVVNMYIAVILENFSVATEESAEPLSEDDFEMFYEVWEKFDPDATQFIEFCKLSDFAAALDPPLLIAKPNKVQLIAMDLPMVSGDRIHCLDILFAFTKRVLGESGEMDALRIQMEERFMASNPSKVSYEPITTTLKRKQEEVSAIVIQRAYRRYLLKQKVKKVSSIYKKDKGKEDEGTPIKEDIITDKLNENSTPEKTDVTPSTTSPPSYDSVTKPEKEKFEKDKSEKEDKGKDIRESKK

Nc1nc(-c2ccc3ccccc3c2)c(Br)s1 [drawing 66]
Plasma Protein (plasma protein): > 98% | fold difference 4-AP IC50 over Spont IC50 [1]: 1.5 x | IC50 [1, 8]: 6.8 µM | IC50 [1, 9]: 4.4 µM

Nc1nc(-c2cccc3ccccc23)c(Br)s1 [drawing 65]
Plasma Protein (plasma protein): > 98% | fold difference 4-AP IC50 over Spont IC50 [1]: 2.8 x | IC50 [1, 8]: 5.1 µM | IC50 [1, 9]: 1.8 µM | IC50 (NaV1.2; read-out: Selectivity IC50 Nav1.2): 30 µM

N[C@@H](Cc1c[nH]cn1)C(=O)O [histidine]
block of 14C-MeAIB transport activity [2]: ~90%

CNC(C)(C)C(=O)O [MeAIB, α-methylaminoisobutyric acid, reference compound]
Km [2]: 30 µM | relative affinity for PMA-induced K+-activity-stimulated Gln/MeAIB transport activity [1]: ~35 µM | affinity of SNAT1 or SNAT2 for MeAIB (SNAT1 or SNAT2): > 0.5 mM

Nc1nc2ccc(SC(F)(F)F)cc2s1 [SKA-19, 2-amino-6-trifluoromethylthio-benzothiazole, reference compound]
inhibition at 10 µM [1]: ~90% | inhibition of spontaneous activity-regulated 14C-MeAIB transport, in words [1]: active | established ion-channel activity (KCa2 and NaV channels): mixed NaV blockers and KCa activators

Nc1nc(-c2cccc3ccccc23)c(Br)s1 [SKA-219, 5-Bromo-4-(1-naphthalenyl)thiazol-2-amine]
solubility [3]: 25 µM (≈ 7.63 µg/mL) | block of transport activity [1]: 90% | inhibition at 10 µM [1]: 90% | IC50 ([1]; hippocampal neurons in vitro, 14C-MeAIB 20 μM, read-out: IC50 to inhibit activity-regulated Gln/MeAIB transport): ~2 µM | Active (annotation beside the compound name: active vs inactive derivatives) ([1]; Table 1: SKA-41, and active and inactive derivatives): SKA-219 Active | inhibition of spontaneous activity-regulated 14C-MeAIB transport, in words [1]: blocked spontaneous transport activity; also recorded: inhibited spontaneous transport activity | potency to inhibit activity-regulated MeAIB transport relative to a comparator, in words [1]: as potent as riluzole | neuroprotection against Glu-induced excitotoxicity in the KA model of TLE [4]: neuroprotective | less potent to block NaV channels than activity-regulated Gln/MeAIB transport (NaV1.2): > 10 × | selectivity to inhibit activity-regulated Gln/MeAIB transport over NaV channels (NaV1.2): > 10 fold and 10 fold and ~15 fold | IC50 (NaV1.2; N1E-115 cells, n=12, read-out: IC50 to inhibit NaV1.2): 30 µM | EC50 (NaV1.2; N1E-115 cells, read-out: EC50 concentration to inhibit NaV1.2): ~30 µM

NC(=O)CC[C@H](N)C(=O)O [Gln, glutamine]
block of 14C-MeAIB transport activity [2]: ~90% | Km [2]: 30 µM | relative affinity for PMA-induced K+-activity-stimulated Gln/MeAIB transport activity [1]: ~97 µM

O=C(O)[C@@H]1CCCN1 [proline]
block of 14C-MeAIB transport activity [2]: ~90%

Nc1nc(-c2cccc3ccccc23)c(Cl)s1 [SKA-378, 5-Chloro-4-(naphthalen-1-yl)thiazol-2-amine]
potency to inhibit activity-regulated MeAIB transport relative to a comparator, in words [1]: as active as SKA-219 and SKA-220, respectively; also recorded: most potent | neuronal degeneration by fluoro-jade B staining in hippocampus ([4]; 30 mg/kg 30 min before and 30 min after first KA (5 mg/kg/hr x 2 hr i.p.), 3 days after KA): prevents fluoro-jade B staining in all regions of the hippocampus; also recorded: Neurodegeneration is not observed | neuroprotection when given after onset of SE ([4]; 30 mg/kg 1 hr after onset of stage IV seizures, at 4 hr post SE, then once daily for 3 days): neuroprotective | NeuN staining: disorganization and neuron loss in CA3 and hilus ([4]; 30 mg/kg pretreatment, 3 days after KA): prevents the disorganization and cell loss | neuroprotection against Glu-induced excitotoxicity in the KA model of TLE [4]: neuroprotective

Nc1nc2ccc3ccccc3c2s1 [SKA-45]
inhibition of spontaneous activity-regulated 14C-MeAIB transport, in words [1]: active | established ion-channel activity (KCa2 and NaV channels): KCa2 activators

CNCC(=O)O [sarcosine]
block of 14C-MeAIB transport activity [2]: ~90% | relative affinity for PMA-induced K+-activity-stimulated Gln/MeAIB transport activity [1]: ~8 µM

Nc1nc2ccc(OC(F)(F)Cl)cc2s1 [SKA-11, reference compound]
inhibition of spontaneous activity-regulated 14C-MeAIB transport, in words [1]: active | established ion-channel activity (KCa2 and NaV channels): mixed NaV blockers and KCa activators

C[C@H](N)C(=O)O [alanine]
block of 14C-MeAIB transport activity [2]: ~90%

NCC(=O)O [glycine]
block of 14C-MeAIB transport activity [2]: ~90%

Nc1nc2ccc(Cc3ccccc3)cc2s1 [SKA-7]
inhibition of spontaneous activity-regulated 14C-MeAIB transport, in words [1]: active | established ion-channel activity (KCa2 and NaV channels): NaV blockers

Nc1nc2ccc(OC(F)(F)F)cc2s1 [riluzole]
IC50 [5]: > 40 µM | established ion-channel activity (KCa2 and NaV channels): mixed NaV blockers and KCa activators | EC50 [6]: 10 to 200 µM and 10 to 20 µM and > 20 µM | IC50 (protein Kinase C): > 30 µM | IC50 [7]: > 30 µM | concentration inhibiting delayed-rectifier K+ channels and activating two-pore K+ channels [7]: 30 to 100 µM | IC50 (NaV channels): 1 to 500 µM and 1 to 50 µM
